From ChEMBL document CHEMBL6103537 (J Med Chem, 2025)
Activity calls are given as the source filed them. No cut-off for these calls is given here.

Experiments:
[1] = Metabolic stability in monkey liver microsome assessed as parent compound remaining measured at 45 mins in presence of NADPH by LC-MS/MS analysis; type: ADME, Macaca mulatta; details: rhesus monkey, liver microsomes, read-out: Stability
[2] = target: T1, Protein cereblon/Signal transducer and transcription activator 6 (Mus musculus) (UniProt P52633+Q8C7D2); test: In vivo PROTAC activity at STAT6/CRBN in BALB/c mouse assessed as reduction in STAT6 level in lung at 200 mg/kg, ip measured at 2 hrs by Western blot analysis; type: functional, organism-based; parameters: scale not given: the % may be the effect or the level left
PBMC = test: Downregulation of STAT5 level in human PBMC cells at 5 uM incubated for 18 hrs by Western blot analysis relative to control; type: functional, cell-based
[3] = target: T2, Protein cereblon/Signal transducer and activator of transcription 6 (Homo sapiens, UniProt P42226+Q96SW2); test: PROTAC activity at STAT6/CRBN in human MV4-11 cells assessed as reduction in STAT6 level at 2 uM by HiBiT bioluminescence assay; type: cell-based; details: time <= 1200.0 min
[4] = Metabolic stability in dog liver microsome assessed as parent compound remaining measured at 30 mins in presence of NADPH by LC-MS/MS analysis; type: ADME, Canis lupus familiaris; details: liver microsomes, read-out: Stability
[5] = target: T2, Protein cereblon/Signal transducer and activator of transcription 6; test: PROTAC activity at STAT6/CRBN in human PBMC cells assessed as reduction in STAT6 level at 5 uM incubated for 18 hrs by Western blot analysis relative to control; type: cell-based; parameters: scale not given: the % may be the effect or the level left
[6] = Stability in dog plasma assessed as parent compound remaining measured at 5 mins by LC-MS/MS analysis; type: ADME, cell-free, Canis lupus familiaris; details: read-out: Stability
[7] = target: T2, Protein cereblon/Signal transducer and activator of transcription 6; test: PROTAC activity at STAT6/CRBN in human MV4-11 cells assessed as reduction in STAT6 level at 2 uM measured upto 1200 mins in presence of lenalidomide by HiBiT bioluminescence assay; type: cell-based; details: Jurkat
[8] = Downregulation of AKR7A3 level in human PBMC cells at 5 uM incubated for 18 hrs by Western blot analysis relative to control; type: functional
[9] = target: Protein cereblon/Signal transducer and activator of transcription 4 (Homo sapiens) (UniProt Q96SW2+Q14765); test: PROTAC activity at STAT4/CRBN in human L-1236 cells assessed as reduction in STAT4 level at 10 uM incubated for 24 hrs by Western blot analysis; type: cell-based
[10] = Stability in mouse plasma assessed as parent compound remaining measured at 30 mins by LC-MS/MS analysis; type: ADME, cell-free; details: read-out: Stability
[11] = target: T2, Protein cereblon/Signal transducer and activator of transcription 6; test: PROTAC activity at STAT6 at Y641 residue/CRBN in human L-1236 cells assessed as reduction in STAT6 level at 10 uM incubated for 24 hrs by Western blot analysis; type: cell-based
[12] = Downregulation of KRT1 level in human PBMC cells at 5 uM incubated for 18 hrs by Western blot analysis relative to control; type: functional
[13] = Stability in human plasma assessed as half life measured upto 60 mins by LC-MS/MS analysis; type: ADME, cell-free
[14] = target: Protein cereblon/Signal transducer and activator of transcription 3 (Homo sapiens) (UniProt P40763+Q96SW2); test: PROTAC activity at STAT3/CRBN in human PBMC cells assessed as reduction in STAT3 level at 10 uM incubated for 18 hrs by Western blot analysis relative to control; type: cell-based
[15] = Metabolic stability in dog liver microsome assessed as parent compound remaining measured at 5 mins in presence of NADPH by LC-MS/MS analysis; type: ADME, Canis lupus familiaris; details: liver microsomes, read-out: Stability
[16] = target: T2, Protein cereblon/Signal transducer and activator of transcription 6; test: PROTAC activity at STAT6 at Y641 residue/CRBN in human L-1236 cells assessed as reduction in STAT6 level incubated for 24 hrs by Western blot analysis; type: cell-based; details: dose 10.0 µM
[17] = target: Protein cereblon/Signal transducer and activator of transcription 2 (Homo sapiens) (UniProt Q96SW2+P52630); test: PROTAC activity at STAT2/CRBN in human L-1236 cells assessed as reduction in STAT2 level at 10 uM incubated for 24 hrs by Western blot analysis; type: cell-based
[18] = Stability in rat plasma assessed as parent compound remaining measured at 15 mins by LC-MS/MS analysis; type: ADME, cell-free; details: read-out: Stability
[19] = Stability in mouse plasma assessed as parent compound remaining measured at 120 mins by LC-MS/MS analysis; type: ADME, cell-free; details: read-out: Stability
[20] = Metabolic stability in mouse liver microsome assessed as parent compound remaining measured at 15 mins in presence of NADPH by LC-MS/MS analysis; type: ADME; details: liver microsomes, read-out: Stability
[21] = target: T2, Protein cereblon/Signal transducer and activator of transcription 6; test: PROTAC activity at STAT6/CRBN in human L-1236 cells assessed as reduction in STAT6 level at 10 uM incubated for 24 hrs by Western blot analysis; type: cell-based
[22] = Stability in mouse plasma assessed as half life measured upto 60 mins by LC-MS/MS analysis; type: ADME, cell-free
[23] = Metabolic stability in mouse liver microsome assessed as half life measured upto 60 mins in presence of NADPH by LC-MS/MS analysis; type: ADME; details: liver microsomes
[24] = Metabolic stability in rat liver microsome assessed as half life measured upto 60 mins in presence of NADPH by LC-MS/MS analysis; type: ADME; details: liver microsomes
[25] = Metabolic stability in human liver microsome assessed as parent compound remaining measured at 5 mins in presence of NADPH by LC-MS/MS analysis; type: ADME; details: liver microsomes, read-out: Stability
[26] = target: T3, Protein cereblon/Signal transducer and activator of transcription 1-alpha/beta (Homo sapiens) (UniProt P42224+Q96SW2); test: PROTAC activity at STAT1/CRBN in human PBMC cells assessed as reduction in STAT1 level at 10 uM incubated for 18 hrs by Western blot analysis relative to control; type: cell-based
[27] = target: T1, Protein cereblon/Signal transducer and transcription activator 6 (Mus musculus); test: In vivo PROTAC activity at STAT6/CRBN in BALB/c mouse assessed as reduction in STAT6 level in lung at 200 mg/kg, ip measured at 24 hrs by Western blot analysis; type: functional, organism-based; parameters: scale not given: the % may be the effect or the level left
[28] = target: T1, Protein cereblon/Signal transducer and transcription activator 6 (Mus musculus); test: In vivo PROTAC activity at STAT6/CRBN in BALB/c mouse assessed as reduction in STAT6 level in liver at 200 mg/kg, ip measured at 2 to 24 hrs by Western blot analysis; type: functional, organism-based; parameters: scale not given: the % may be the effect or the level left; details: time 2-24 hrs
[29] = target: T3, Protein cereblon/Signal transducer and activator of transcription 1-alpha/beta (Homo sapiens); test: PROTAC activity at STAT1/CRBN in human L-1236 cells assessed as reduction in STAT1 level at 10 uM incubated for 24 hrs by Western blot analysis; type: cell-based
[30] = Metabolic stability in rat liver microsome assessed as parent compound remaining measured at 5 mins in presence of NADPH by LC-MS/MS analysis; type: ADME; details: liver microsomes, read-out: Stability
[31] = Stability in monkey plasma assessed as parent compound remaining measured at 120 mins by LC-MS/MS analysis; type: ADME, cell-free, Macaca mulatta; details: rhesus monkey, read-out: Stability
[32] = target: Protein cereblon/Signal transducer and activator of transcription 5A/Signal transducer and activator of transcription 5B (Homo sapiens) (UniProt P42229+P51692+Q96SW2); test: PROTAC activity at STAT5/CRBN in human MV4-11 cells assessed as reduction in STAT5 level at upto 10 uM incubated for 12 hrs by Western blot analysis; type: cell-based
[33] = Metabolic stability in mouse liver microsome assessed as parent compound remaining measured at 45 mins in presence of NADPH by LC-MS/MS analysis; type: ADME; details: liver microsomes, read-out: Stability

## CC(C)(C)[C@H](NC(=O)c1cc2cc(C(F)(F)P(=O)(O)O)ccc2s1)C(=O)N1C[C@@H](OCCCCCC#Cc2cccc3c2CN(C2CCC(=O)NC2=O)C3=O)C[C@H]1C(=O)N1CCO[C@H](c2ccccc2)C1 (some centres undefined)
[1]
  remaining at 0.75 h: 61%
[2]
  Activity: > 70%
PBMC
  Activity: inactive
[3]
  Activity: Time-dependent-effect
[4]
  remaining at 0.5 h: 95%
[5]
  Activity: 79%
[6]
  remaining at 5 min: 82%
[7]
  Activity: Active
[8]
  Activity: 51%
[9]
  Activity: No effect
[10]
  remaining at 0.5 h: 96%
[11]
  Activity: No effect
[12]
  Activity: 59%
[13]
  half-life: > 2 h
[14]
  Activity: No effect
[15]
  remaining at 5 min: 97%
[16]
  Activity: Dose-dependent-effect
[17]
  Activity: No effect
[18]
  remaining at 0.25 h: 96%
[19]
  remaining at 2 h: 79%
[20]
  remaining at 0.25 h: 98%
[21]
  Activity: No effect
[22]
  half-life: > 2 h
[23]
  half-life: > 2 h
[24]
  half-life: > 2 h
[25]
  remaining at 5 min: 94%
[26]
  Activity: No effect
[27]
  Activity: > 70%
[28]
  Activity: > 90%
[29]
  Activity: No effect
[30]
  remaining at 5 min: 99%
[31]
  remaining at 2 h: 82%
[32]
  Activity: No effect
[33]
  remaining at 0.75 h: 92%
